# Assay results: patent publication US8987189B2, “Treating hepatitis C virus infection” (Board of Regents, The University of Texas System, priority 2007, dated 2015)
# How the values were obtained:
# genotype 2a HCV = assay: HCV release assay in Huh7-GL cells (HCV RNA copy number and titer in medium, intracellular HCV RNA); format: cell-based, hepatitis C virus; details: for cellular release of virus (HCV RNA copy numbers and titers in the media): Huh7-GL cells, 1 nM, 10 nM, 100 nM and 500 nM, 16 hr then 4 hours in serum-free medium
# Method: (§1) Huh7-GL cells were incubated in the absence or presence of the MTP inhibitor […]. Following incubation in serum-free medium, culture medium was harvested and the amount of HCV RNA, HCV titer, and apoB in the medium was measured.
# Huh7-GL cells are cultured as described in Example 2. On day 1, the cells are treated with 1 nM, 10 nM, 100 nM, and 500 nM of the following MTP inhibitors: BMS-201038 (positive control), BMS-200150, BMS-212122, BMS-197636, JTT-130, Implitapide, mitratapide, and CP-346086. 16 hr later on day 2, cells are switched to serum-free medium in the absence or presence of the same amount of the MTP inhibitor.
# [1] = previous clinical trials; cited from earlier work
# apoB = apoB mRNA and apoB secretion in Huh7-GL cells; format: cell-based, human; details: Huh7-GL cells incubated with MTP inhibitor, serum-free medium
# Method: We transfected Huh7-GL cells, a line of Huh7 cells that contain a chromosomally integrated genotype 2a HCV cDNA and constitutively produce infectious virus (Cai et al., 2005), with a duplex siRNA targeting apoB or GFP as a control. Following incubation in serum-free medium, culture medium was harvested and the amount of apoB and HCV in the medium was analyzed. […] In control cells transfected with the GFP siRNA, the HCV copy number and titer increased by more than 10 fold during the period of 4-hr incubation. In cells receiving the apoB siRNA, this increase was reduced by about 50% as assayed by viral copy number, and 70% as assayed by the viral titer.
# as §1
# HCV = assay: Randomized, double-blind, placebo-controlled trial in patients with chronic HCV infection; details: 0.15 mg per kilogram twice daily, 12-week course
# Method: Patients are recruited and are eligible for enrollment if they are positive for HCV RNA on serologic testing after at least 3 months of interferon therapy. Patients who can not tolerate interferon because of severe side effects, such as fatigue, neuropsychiatric disturbances, or thrombocytopenia, are also included.
# Physicians and patients are blinded to treatment assignments. Patients are evaluated every 3 weeks for compliance, which is assessed by pill count, and for the development of adverse reactions. […] At each evaluation visit, a complete blood count is done and serum levels of electrolytes, blood urea nitrogen, creatinine, aspartate aminotransferase, alanine aminotransferase, albumin, and total bilirubin are measured. Titers of serum HCV RNA are assessed before enrollment, at each evaluation visit, and 6 weeks after the final dose by using a […] multicycle reverse transcription polymerase chain reaction method. Titers are calculated up to 5 million copies/mL; if a titer is greater than 5 million copies/mL, it is simply reported as such and the exact value is not given.
# [2] = Huh7-GL cells incubated with MTP inhibitor vs absence of inhibitor
Molecule,cellular release of virus (HCV RNA copy numbers and titers in the media) (genotype 2a HCV),other results
CCCNC(=O)C1(CCCCN2CCC(N3Cc4ccccc4C3=O)CC2)c2ccccc2-c2ccccc21 [BMS-197636],decreases in cellular release of virus,
O=C1c2ccccc2CN1C1CCN(CCC(c2ccccc2)c2ccccc2)CC1 [BMS-200150],decreases in cellular release of virus,
O=C(NC1CCN(CCCCC2(C(=O)NCC(F)(F)F)c3ccccc3-c3ccccc32)CC1)c1ccccc1-c1ccc(C(F)(F)F)cc1 [BMS-201038],decreases in cellular release of virus,"tolerability [1]: high tolerability; secretion of apoB (apoB): blocked; intracellular HCV RNA (genotype 2a HCV; Huh7-GL cells in the absence or presence of the MTP inhibitor): remained the same; reduction of the amount of HCV RNA in the medium (genotype 2a HCV; [2]): about 80%; reduction of viral titer in the medium (genotype 2a HCV; [2]): about 80%; serum viremia (viral load, aminotransferase levels) (HCV): decrease in serum viremia"
Cc1ccc2c(nc(C)n2CCCCC2(C(=O)NCC(F)(F)F)c3ccccc3-c3ccccc32)c1NC(=O)c1ccccc1-c1ccc(C(F)(F)F)cc1 [BMS-212122],decreases in cellular release of virus,
O=C(Nc1ccc2c(c1)CCN(Cc1ncn[nH]1)C2)c1ccccc1-c1ccc(C(F)(F)F)cc1 [CP-346086],decreases in cellular release of virus,
CCOC(=O)C(COC(=O)Cc1ccc(NC(=O)c2ccccc2-c2ccc(C(F)(F)F)cc2)c(C(=O)N(C)C)c1)(C(=O)OCC)c1ccccc1 [JTT-130],decreases in cellular release of virus,
CC[C@@H](C)n1ncn(-c2ccc(N3CCN(c4ccc(OC[C@@H]5CO[C@@](CSc6nncn6C)(c6ccc(Cl)cc6)O5)cc4)CC3)cc2)c1=O [mitratapide],decreases in cellular release of virus,
implitapide,decreases in cellular release of virus,
